Measurements: US12275729B2 (Merck Sharp & Dohme LLC, priority 2017, dated 2025)
Structures can show the parent of a compound that is named as a salt.

Assays:
IDO1 [1] = molecular target: T1, IDO1 (Homo sapiens, UniProt P14902); assay: IDO1 Human Whole Blood Assay; type: cell-based; parameters: Human whole blood was drawn in sodium heparin coated tubes from healthy internal donors; from tissue; host or cells: human whole blood from healthy donors, stimulated with LPS and IFNγ; settings: LPS and IFNγ stimulated
T1 sequence (P14902 whole entry): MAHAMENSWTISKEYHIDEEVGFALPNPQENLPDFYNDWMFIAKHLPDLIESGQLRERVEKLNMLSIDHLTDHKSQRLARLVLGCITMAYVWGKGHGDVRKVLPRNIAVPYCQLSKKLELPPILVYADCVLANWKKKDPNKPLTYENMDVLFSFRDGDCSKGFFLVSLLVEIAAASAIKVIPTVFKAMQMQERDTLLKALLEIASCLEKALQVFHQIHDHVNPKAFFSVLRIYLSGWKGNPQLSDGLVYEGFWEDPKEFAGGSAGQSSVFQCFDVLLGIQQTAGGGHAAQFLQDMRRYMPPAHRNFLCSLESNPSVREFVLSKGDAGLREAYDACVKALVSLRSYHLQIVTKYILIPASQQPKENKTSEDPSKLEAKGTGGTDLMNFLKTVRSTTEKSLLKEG
Protocol: IDO1 Human Whole Blood Assay
Compounds to be tested were serially diluted in ten 3-fold steps in DMSO starting from 10 mM. […] LPS and IFNγ was prepared in RPMI to a 10× of final conc. (1000 ng/mL), final concentration is 100 ng/mL.
Human whole blood was drawn in sodium heparin coated tubes from healthy internal donors. 240 μL of blood was transferred to each of the wells of a v-bottom 96 well plate. 30 μL of compound was transferred from intermediate dilution plate, and incubated for 15 min. 30 μL from stimulants was then transferred to blood and mixed thoroughly.
On day 2 isotope labeled standard of kynurenine and tryptophan was made in water at 1Ox concentration and 30 μL was added to the blood at […] final concentration. The assay plates were centrifuged at 300×G for 10 min with no brake to separate plasma from red blood cells. 60 μL of plasma samples was removed without disturbing red blood cells. Plasma was diluted with RPMI in 1:1 ratio and proteins were precipitated out with two volume of Acetonitrile. The plates were centrifuged at 4000×G for 60 min. 20 μL of supernatant was carefully transferred to a 384 well plate contain 40 μL of 0.1% formic acid in water and analyzed by LC/MS/MS.
LC/MS/MS analyses were performed using Thermo Fisher's LX4-TSQ Quantum Ultra system. This system consists of four Agilent binary high-performance liquid chromatography (HPLC) pumps and a TSQ Quantum Ultra triple quadrupole MS/MS instrument. For each sample, 5 μL were injected onto an Atlantis T3 column (2.1 mm×150 mm, […] particle size) from Waters. The mobile phase gradient pumped at 0.8 mL/min was used to elute the analytes from the column at 25° C. […] Mobile phase A consisted of 0.1% formic acid in water. Mobile phase B consisted of 0.1% of formic acid in acetonitrile. Data was acquired in positive mode using a HESI interface. The operational parameters for the TSQ Quantum Ultra instrument were a spray voltage of 4000 V, capillary temperature of 380° C., vaporizer temperature 400° C., shealth gas 60 arbitrary units, Aux gas 20 arbitrary units, tube lens 85 and collision gas 1.2 mTorr. […] The peak area was integrated by Xcalibur Quan software. The ratios between the kynurenine generated in the reaction and 2D6-Kynurenine spiked-in internal standard were used to generate percentage inhibition and IC50 values.

IDO1 [2] = molecular target: T1, IDO1; assay: IDO1 Cellular Assay in HeLa Cells Stimulated with IFNγ; type: cell-based; settings: read-out: Hela IC50

SMILES	IC50 (IDO1 [1]) [nM]	IC50 (IDO1 [2]; about 48 hours) [nM]	IC50 (IDO1 [2]) [nM]
CC(C)CC(=O)N1CCCc2cc([C@@H](C)NC(=O)c3ccc(Cl)cc3)ccc21 (racemic) [Example 28, 4-chloro-N-{(1R)-1-[1-(3-methyl-butanoyl)-1,2,3,4-tetrahydroquinolin-6-yl]ethyl}benzamide]	33	3.8	–
CC(C(=O)Nc1ccc(F)cc1)c1ccc2c(c1)CCCN2C(=O)c1cccc(Cl)c1 (racemic) [Example 50, 2-[1-(3-chlorobenzene-1-carbonyl)-1,2,3,4-tetrahydroquinolin-6-yl]-N-(4-fluorophenyl)propanamide]	43	2.5	–
CC(C(=O)Nc1ccc(F)cc1)c1ccc2c(c1)CCCN2Cc1cccc(Cl)c1 (racemic) [Example 224, 2-{1-[(3-chlorophenyl)methyl]-1,2,3,4-tetrahydroquinolin-6-yl}-N-(4-fluorophenyl)propanamide]	545	7.9	–
Cc1nccc(N2CC(F)Cc3cc(C4(NC(=O)c5ccc(Cl)cc5)CC4)ccc32)n1 (racemic) [Example 437, 4-chloro-N-(1-(3-fluoro-1-(2-methylpyrimidin-4-yl)-1,2,3,4-tetrahydroquinolin-6-yl)cyclopropyl)benzamide, 2,2,2-trifluoroacetate salt]	16	–	1.82
C[C@H](C(=O)Nc1ccc(F)cc1)c1ccc2c(c1)CCCN2C(=O)c1cccc(Cl)c1 (single isomer, unassigned) [Example 52]	372	4.9	–
C[C@@H](C(=O)Nc1ccc(F)cc1)c1ccc2c(c1)CCCN2C(=O)c1cccc(Cl)c1 (single isomer, unassigned) [Example 53]	45	2.2	–
C[C@@H](C(=O)Nc1ccc(F)cn1)c1ccc2c(c1)CCCN2C(=O)c1cccc(Cl)c1 (single isomer, unassigned) [Example 55]	19	2.4	–
C[C@@H](C(=O)Nc1ccc(Cl)cc1)c1ccc2c(c1)CCCN2C(=O)c1cccc(Cl)c1 (single isomer, unassigned) [Example 57]	51	2.3	–
C[C@H](C(=O)Nc1ccc(F)cc1)c1ccc2c(c1)CCCN2C(=O)[C@H]1CCCCO1 (single isomer, unassigned) [Example 87]	22	2.1	–
CC(NC(=O)c1ccc(F)cc1)c1ccc2c(c1)CCCN2C(CO)c1cccc(Cl)c1 (single isomer, unassigned) [Example 92]	378	6	–
CC(NC(=O)c1ccc(F)cc1)c1ccc2c(c1)CCCN2C(CO)c1cccc(Cl)c1 (single isomer, unassigned) [Example 93]	450	5.7	–
O=C([C@@H]1CCCCO1)N1CCCc2cc(C3(C(=O)Nc4ccc(F)cc4)CCC3)ccc21 (single isomer, unassigned) [Example 105]	61	1.9	–
O=C([C@H]1CCCCO1)N1CCCc2cc(C3(C(=O)Nc4ccc(F)cc4)CCC3)ccc21 (single isomer, unassigned) [Example 106]	12	1.2	–
CC(NC(=O)c1ccc(Cl)cc1)c1ccc2c(n1)CCCN2C(=O)C1CC1 (single isomer, unassigned) [Example 125, 4-chloro-N-{1-[5-(cyclopropanecarbonyl)-5,6,7,8-tetrahydro-1,5-naphthyridin-2-yl]ethyl}benzamide]	289	8.3	–
CC(C(=O)Nc1ccc(F)cc1)c1ccc2c(c1)CCCN2Cc1cccc(Cl)c1 (single isomer, unassigned) [Example 225, 2-{1-[(3-chlorophenyl)methyl]-1,2,3,4-tetrahydroquinolin-6-yl}-N-(4-fluorophenyl)propanamide]	149	4.7	–
C[C@H](NC(=O)c1ccc(Cl)cc1)c1ccc2c(n1)OCCN2C(=O)c1cccc(Cl)c1 (single isomer, unassigned) [Example 254, 4-chloro-N-(1-(1-(3-chlorobenzoyl)-2,3-dihydro-1H-pyrido[2,3-b][1,4]oxazin-6-yl)ethyl)benzamide]	263	3.7	–
CC(C(=O)Nc1ccc(Cl)cc1)c1ccc2c(c1)CC(F)CN2C(=O)c1cccc(Cl)c1 (single isomer, unassigned) [Example 256, 2-(1-(3-chlorobenzoyl)-3-fluoro-1,2,3,4-tetrahydroquinolin-6-yl)-N-(4-chlorophenyl)propanamide]	50	2.37	–
CC(C(=O)Nc1ccc(Cl)cc1)c1ccc2c(c1)CC(F)CN2C(=O)c1cccc(Cl)c1 (single isomer, unassigned) [Example 257, 2-(1-(3-chlorobenzoyl)-3-fluoro-1,2,3,4-tetrahydroquinolin-6-yl)-N-(4-chlorophenyl)propanamide]	35	1.34	–
CC(C(=O)Nc1ccc(Cl)cc1)c1ccc2c(c1)CC(F)CN2C(=O)c1cccc(Cl)c1 (single isomer, unassigned) [Example 259, 2-(1-(3-chlorobenzoyl)-3-fluoro-1,2,3,4-tetrahydroquinolin-6-yl)-N-(4-chlorophenyl)propanamide]	41	2.51	–
Cc1nccc(N2CCCc3nc(C4(C(=O)Nc5ccc(F)cc5)CC4(F)F)ccc32)n1 (single isomer, unassigned) [Example 421, 2,2-difluoro-N-(4-fluorophenyl)-1-(5-(2-methylpyrimidin-4-yl)-5,6,7,8-tetrahydro-1,5-naphthyridin-2-yl)cyclopropanecarboxamide]	65	–	2.64
Cc1nccc(N2CCCc3nc(C4(C(=O)Nc5ccc(F)cc5)CC4(F)F)ccc32)n1 (single isomer, unassigned) [Example 422, 2,2-difluoro-N-(4-fluorophenyl)-1-(5-(2-methylpyrimidin-4-yl)-5,6,7,8-tetrahydro-1,5-naphthyridin-2-yl)cyclopropanecarboxamide]	12	–	1.7
CC(C(=O)Nc1ccc(F)cc1)c1ccc2c(n1)CCCN2C(=O)C1CCCO1 (stereo in doubt) [Example 162, N-(4-fluorophenyl)-2-{5-[(2R)-oxolane-2-carbonyl]-5,6,7,8-tetrahydro-1,5-naphthyridin-2-yl}propanamide]	29	2.7	–
CC(C(=O)Nc1ccc(F)cc1)c1ccc2c(c1)CCCN2C(=O)c1cc(C(F)F)ccn1 (centres unmarked) [Example 38, 2-{1-[4-(difluoromethyl)pyridine-2-carbonyl]-1,2,3,4-tetrahydroquinolin-6-yl}-N-(4-fluorophenyl)propanamide]	36	5.7	–
CC(C(=O)Nc1ccc(F)cc1)c1ccc2c(c1)CCCN2C(=O)c1cnn(C)c1 (centres unmarked) [Example 48, N-(4-fluorophenyl)-2-[1-(1-methyl-1H-pyrazole-4-carbonyl)-1,2,3,4-tetrahydroquinolin-6-yl]propanamide]	321	15.8	–
CC(C(=O)Nc1ccc(Cl)cc1)c1ccc2c(c1)CCCN2C(=O)c1cccc(Cl)c1 (centres unmarked) [Example 51, 2-[1-(3-chlorobenzene-1-carbonyl)-1,2,3,4-tetrahydroquinolin-6-yl]-N-(4-chlorophenyl)propanamide]	96	2	–
